According to patent US10273279B2, “Protease activated receptor-1 (PAR1) derived cytoprotective polypeptides and related methods” (THE SCRIPPS RESEARCH INSTITUTE, priority 2011, dated 2019):

Tests used:
[1] = system: ERK1/2 phosphorylation in EAhy926 endothelial cells; test: ERK1/2 phosphorylation in EA.hy.926 endothelial cells, Western blot of lysates (LI-COR Odyssey); format: cell-based, human; details: 5 min; 10 nM APC or thrombin, 10 μM TFLL peptide, 50 μM TR47-66 or scr-TR47-66
Description: To assess whether PAR1 cleaved at Arg^46 would generate a PAR1 N-terminus that is capable of promoting PAR1 signaling, we studied the effects of synthetic peptides on ERK1/2 phosphorylation in EAhy926 endothelial cells. […] Relative phosphorylation of ERK1/2 was determined using the LI-COR Odyssey infrared imaging system which permits quantitative analysis over a wide dynamic range.
In this figure (left), anti-pT202Y204-ERK1/2 antibodies appear green while total anti-ERK1/2 antibodies appear red, and orange intensity reflects overlaps. […] The signal for phosphorylated ERK1/2 (green channel) was normalized to the signal for total ERK1/2 antigen (red channel) to quantify relative phosphorylation as a ratio, and the results are seen in the bar graph. […] The control scr-TR47-66 peptide (scrambled residues 47-66) caused no increase.
Methods: EA.hy.926 cells (ATCC; CRL-2922) were grown in 6-well plates in DMEM (Invitrogen #12430) supplemented with glutamax (Invitrogen #35050) and 10% FBS (Hyclone #35-011-CV) in a 37° C. cell incubator with a humidified atmosphere and 5% CO2 in air until confluency. […] Subsequently cells were resuspended in lysis buffer with protein and phosphatase inhibitors, cell lysates were applied to SDS-PAGE gel electrophoresis on 10% Bis-Tris gels with MOPS running buffer (Invitrogen) and transferred to PVDF membrane (Millipore) for Western blot analysis. Blots were blocked in Odyssey blocking buffer (Licor) and incubated with a combination of mouse anti-ERK1/2 (1/2000; Cell Signaling #3A7) and rabbit anti-pT202/204 ERK1/2 (1/1000; cell signaling #D13.14.4E) antibodies in Odyssey blocking buffer (Licor). After washing, blots were incubated with RDye680-labeled donkey anti-mouse (1/10,000; Licor) and IRDye800CW-labeled donkey anti-rabbit (1/10,000), washed again with PBS/0.1% Tween and IR fluorescence of bound antibodies was determined using the Odyssey (Licor).

[2] = system: Akt phosphorylation at Ser473 in EA.hy.926 human endothelial cells; test: Akt Ser473 phosphorylation in EA.hy.926 endothelial cells (in-cell Western); format: cell-based; details: for Ser473-Akt phosphorylation (activation of Akt): Example 7, under the employed experimental conditions; for pSer473-Akt (Akt phosphorylation): 0, 5 or 30 min, TFLL 50 μM, NPND 250 μM, scr-NPND 250 μM
Source text: (§1) Activated Protein C (APC) cleaves a synthetic PAR1 tail peptide at Arg^41 and Arg^46; furthermore, APC cleaves SEAP-PAR1 mutants with the mutations R41A or R41Q but not SEAP-PAR1 with both R41Q/R46Q mutations. […] It was thus hypothesized that a new PAR1 N-terminus beginning at residue Asn-47 promotes PAR1 signaling and APC cytoprotective activities. Since phosphorylation of signaling network components is useful for monitoring activation of signaling pathways, the effects of synthetic PAR1 peptides on Akt and ERK1/2 phosphorylation in EA.hy.926 human endothelial cells were studied. Cells were treated for 0, 5 or 30 min with peptides prior to cell fixation, permeabilization of cells and subsequent immunoblotting analysis (“in-cell Western blotting”). Relative phosphorylation of Akt at Ser^473 (pSer^473-Akt) or of ERK1/2 at Thr202/204 (pERK1/2) in endothelial cells was quantified using the LI-COR Odyssey infrared (IR) fluorescence imaging system which permits “in cell” Western blots. The Odyssey permits simultaneous quantification of different antibodies that yield either red or green signals.
(§2) Methods: EA.hy.926 cells (ATCC: CRL-2922) were grown in black clear bottom 96 well plates (Nunc) in DMEM (Invitrogen #12430) supplemented with glutamax (Invitrogen #35050) and 10% FBS (Hyclone #35-011-CV) in a 37° C. cell incubator with a humidified atmosphere and 5% CO2 in air until confluency. Cells were treated for 0, 5 or 30 min with PAR1 peptides TFLL (50 μM), NPND (250 μM) or scr-NPND (250 μM) or with vehicle in serum free media. Subsequently cells were fixed with methanol free 4% para-formaldehyde (Pierce), washed with phosphate buffered saline (PBS; Invitrogen) containing 1% triton X-100 and blocked with Odyssey blocking buffer (Licor). Cells were incubated with rabbit anti-pT202/Y204 ERK1/2 (1/1000; Cell signaling D13.14.4E) or rabbit anti-pSer^473 (1/100; cell signaling D9E) with Odyssey blocking buffer. After washing with PBS/0.1% Tween (1/800), IRDye 800CW-labelled secondary goat anti-rabbit antibodies (Licor) were added to the cells in Odyssey blocking buffer and 1/10,000 Draq5 (Biostatus) for cell normalization. After final washing with PBS/0.1% Tween IR, the fluorescence of bound antibodies was determined using the Odyssey (Licor). Background fluorescence was determined by omitting the primary antibody and subtracting values for controls from all other observed values.

[3] = system: ERK1/2 phosphorylation at Thr202/204 in EA.hy.926 human endothelial cells; test: ERK1/2 phosphorylation in EA.hy.926 endothelial cells (in-cell Western); format: cell-based; details: for activation of ERK1/2: Example 7; for ERK1/2 phosphorylation (pERK1/2): 0, 5 or 30 min, TFLL 50 μM, NPND 250 μM, scr-NPND 250 μM
Source text: as §1, §2

[4] = system: glycogen synthase kinase 3β (GSK3β) phosphorylation at Ser9; test: GSK3β Ser9 phosphorylation in endothelial cells; format: cell-based, human; details: for Ser9-GSK3β phosphorylation: Example 6
Description: To further confirm activation of Akt by the TR47-66 peptide, Akt-mediated inactivation of glycogen synthase kinase 3β (GSK3β) via phosphorylation at Ser9 was determined. GSK3β is a well-known downstream substrate for Akt.

| Substance | increase in ERK1/2 phosphorylation (phospho/total ERK1/2 ratio) [1] | Ser473-Akt phosphorylation (activation of Akt) [2] | activation of ERK1/2 [3] | phosphorylation of GSK3β at Ser9 ([4]; Example 7) | pSer473-Akt (Akt phosphorylation) [2] | ERK1/2 phosphorylation (pERK1/2) [3] | Ser9-GSK3β phosphorylation [4] | pSer473-Akt (Akt phosphorylation) ([2]; listed as NPND) | Akt phosphorylation at Ser473 in the presence of the PAR1 inhibitor SCH79797 ([2]; with SCH79797) |
| --- | --- | --- | --- | --- | --- | --- | --- | --- | --- |
| APC: Activated Protein C, serine protease with anticoagulant and cytoprotective cell signaling activities | 1.5 fold | robust activation of Akt | transient but modest activation | sustained phosphorylation |  |  |  |  |  |
| GDENENEKPNWYELKEPDSF (scrambled sequence) [scr-TR47-66, control scrambled TR47-66 peptide containing scrambled residues 47-66, reference compound] | no increase |  |  |  | essentially no effect | essentially no effect | no phosphorylation |  |  |
| NPNDKYEPFWEDEEKNESGL (listed as Homo sapiens) [TR47-66] |  | induced activation of Akt | failed to induce any noticeable activation |  | increased Akt phosphorylation at Ser^47 | essentially no effect | induced significant Ser9-GSK3β phosphorylation starting at 30 min | time-dependent sustained increase | failed to induce Akt phosphorylation |
| thrombin | 3 fold | neither thrombin nor TRAP induced |  |  |  |  |  |  |  |
